Results on two compounds are retold here after ChEMBL document CHEMBL1909046, “DrugMatrix in vitro pharmacology data”.

SMILES strings stand for the structures.

Chain of Histamine H2 receptor (P25021 whole entry): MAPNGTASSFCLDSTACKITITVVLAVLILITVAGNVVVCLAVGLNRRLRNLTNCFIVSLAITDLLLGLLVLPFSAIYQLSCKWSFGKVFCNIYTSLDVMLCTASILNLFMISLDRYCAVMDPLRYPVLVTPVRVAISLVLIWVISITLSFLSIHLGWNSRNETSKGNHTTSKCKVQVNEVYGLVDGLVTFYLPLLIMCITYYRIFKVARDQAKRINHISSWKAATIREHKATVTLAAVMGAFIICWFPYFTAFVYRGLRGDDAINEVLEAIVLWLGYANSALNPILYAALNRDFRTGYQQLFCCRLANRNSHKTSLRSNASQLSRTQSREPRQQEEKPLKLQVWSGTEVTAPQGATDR
Chain of Melanocortin receptor 5 (P33032 whole entry): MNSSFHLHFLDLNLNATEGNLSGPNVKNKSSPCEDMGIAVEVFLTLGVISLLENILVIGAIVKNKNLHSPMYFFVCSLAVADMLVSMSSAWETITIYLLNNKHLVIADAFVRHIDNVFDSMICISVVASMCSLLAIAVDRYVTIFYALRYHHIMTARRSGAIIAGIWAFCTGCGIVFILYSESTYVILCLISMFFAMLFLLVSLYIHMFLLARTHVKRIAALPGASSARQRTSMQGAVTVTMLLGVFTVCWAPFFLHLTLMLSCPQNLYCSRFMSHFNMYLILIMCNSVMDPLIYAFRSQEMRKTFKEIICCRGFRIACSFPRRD
Chain of 5-hydroxytryptamine receptor 1B (P28564 whole entry): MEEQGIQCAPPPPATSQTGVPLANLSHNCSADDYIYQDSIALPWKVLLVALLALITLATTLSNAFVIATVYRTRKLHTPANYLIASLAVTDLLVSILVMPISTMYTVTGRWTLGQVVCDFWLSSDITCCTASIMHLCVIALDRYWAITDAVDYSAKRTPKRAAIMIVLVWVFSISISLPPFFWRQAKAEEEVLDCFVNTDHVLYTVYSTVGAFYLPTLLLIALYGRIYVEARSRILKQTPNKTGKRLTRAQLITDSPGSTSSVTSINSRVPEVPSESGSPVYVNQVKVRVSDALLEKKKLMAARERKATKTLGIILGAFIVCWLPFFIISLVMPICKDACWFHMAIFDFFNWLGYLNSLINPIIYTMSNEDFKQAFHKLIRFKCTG
Chain of Tyrosine-protein kinase Fyn (P06241 whole entry): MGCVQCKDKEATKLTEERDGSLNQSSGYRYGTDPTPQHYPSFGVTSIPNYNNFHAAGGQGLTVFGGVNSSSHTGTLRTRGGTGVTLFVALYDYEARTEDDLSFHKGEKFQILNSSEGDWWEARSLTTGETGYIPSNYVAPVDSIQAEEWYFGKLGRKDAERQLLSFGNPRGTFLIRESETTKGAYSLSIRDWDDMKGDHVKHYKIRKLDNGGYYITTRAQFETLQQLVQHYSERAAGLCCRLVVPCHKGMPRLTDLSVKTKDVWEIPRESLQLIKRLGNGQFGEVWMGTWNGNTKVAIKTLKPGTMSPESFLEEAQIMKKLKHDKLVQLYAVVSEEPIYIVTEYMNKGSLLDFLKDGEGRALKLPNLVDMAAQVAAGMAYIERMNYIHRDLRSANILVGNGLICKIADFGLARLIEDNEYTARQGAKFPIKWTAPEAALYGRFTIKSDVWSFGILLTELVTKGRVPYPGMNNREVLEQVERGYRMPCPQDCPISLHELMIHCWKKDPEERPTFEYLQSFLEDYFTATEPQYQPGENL

System in one assay: not listed separately
Put plainly: DRUGMATRIX: Sigma2 radioligand binding (ligand: [3H] Ifenprodil). The format is cell membranes, Rattus norvegicus, Wistar, Brain, Membrane. Conditions: Not Active = under 50% inhibition at 10 µM.
Consider `COc1ccc(C(CN(C)C)C2(O)CCCCC2)cc1` (stereo unspecified) [VENLAFAXINE], for which the IC50 result is reported as “Not Active” and the Ki result is “Not Active”.

With `CN(N=O)C(=O)N[C@@H](C=O)[C@@H](O)[C@H](O)[C@H](O)CO` [STREPTOZOCIN], the IC50 result is given as “Not Active” and the Ki result is recorded as “Not Active”.

In another assay the target is Sodium-dependent dopamine transporter (Homo sapiens, UniProt Q01959). Nature of the assay: DRUGMATRIX: Dopamine Transporter radioligand binding (ligand: [125I] RTI-55). The format is cell membranes, CHO-K1, Membrane. Conditions: cho-k1; Not Active = under 50% inhibition at 10 µM.
Chain of Sodium-dependent dopamine transporter (Q01959 whole entry): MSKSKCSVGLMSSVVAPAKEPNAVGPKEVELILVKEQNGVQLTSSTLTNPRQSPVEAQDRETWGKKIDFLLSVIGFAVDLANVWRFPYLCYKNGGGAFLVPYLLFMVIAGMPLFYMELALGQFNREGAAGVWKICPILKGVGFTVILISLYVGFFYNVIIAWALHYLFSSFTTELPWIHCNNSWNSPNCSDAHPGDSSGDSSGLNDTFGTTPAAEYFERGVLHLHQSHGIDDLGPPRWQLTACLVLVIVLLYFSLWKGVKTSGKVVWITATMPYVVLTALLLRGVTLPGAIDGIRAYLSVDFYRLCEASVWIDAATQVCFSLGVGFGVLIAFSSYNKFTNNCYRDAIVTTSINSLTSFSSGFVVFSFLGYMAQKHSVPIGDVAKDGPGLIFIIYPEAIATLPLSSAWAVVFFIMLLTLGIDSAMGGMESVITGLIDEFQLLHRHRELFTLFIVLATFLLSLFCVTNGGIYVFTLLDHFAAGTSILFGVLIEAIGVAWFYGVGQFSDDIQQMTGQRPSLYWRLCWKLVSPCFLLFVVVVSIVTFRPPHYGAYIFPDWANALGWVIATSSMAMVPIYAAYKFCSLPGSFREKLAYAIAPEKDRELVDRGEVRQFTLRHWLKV
As for `COc1ccc(C(CN(C)C)C2(O)CCCCC2)cc1` (stereo unspecified) [VENLAFAXINE], the IC50 entry is on record as “Not Active”.

As to `CN(N=O)C(=O)N[C@@H](C=O)[C@@H](O)[C@H](O)[C@H](O)CO` [STREPTOZOCIN], the IC50 result is reported as “Not Active”.

System in the next assay: not listed separately
Nature of the assay: DRUGMATRIX: GABAA, Flunitrazepam, Central radioligand binding (ligand: [3H] Flunitrazepam). The format is cell membranes, Rattus norvegicus, Wistar, Brain, Membrane. Conditions: Not Active = under 50% inhibition at 10 µM.
For `COc1ccc(C(CN(C)C)C2(O)CCCCC2)cc1` (stereo unspecified) [VENLAFAXINE], the IC50 entry is recorded as “Not Active” and the Ki entry is “Not Active”.

Regarding `CN(N=O)C(=O)N[C@@H](C=O)[C@@H](O)[C@H](O)[C@H](O)CO` [STREPTOZOCIN], the IC50 entry was “Not Active” and the Ki entry is reported as “Not Active”.

Another assay addresses Histamine H2 receptor (Homo sapiens, UniProt P25021).
Test: not given
The class given is cell membranes, CHO-K1, Membrane. The note with it: cho-k1.
On to `COc1ccc(C(CN(C)C)C2(O)CCCCC2)cc1` (stereo unspecified) [VENLAFAXINE], for which the IC50 entry is “Not Active”.

As for `CN(N=O)C(=O)N[C@@H](C=O)[C@@H](O)[C@H](O)[C@H](O)CO` [STREPTOZOCIN], the IC50 result is on record as “Not Active”.

The target in a further assay is Insulin receptor (Rattus norvegicus, UniProt P15127). Further: in other assays of this panel Not Active means under 50% inhibition at 10 µM.
Chain of Insulin receptor (P15127 27-759 limits assumed): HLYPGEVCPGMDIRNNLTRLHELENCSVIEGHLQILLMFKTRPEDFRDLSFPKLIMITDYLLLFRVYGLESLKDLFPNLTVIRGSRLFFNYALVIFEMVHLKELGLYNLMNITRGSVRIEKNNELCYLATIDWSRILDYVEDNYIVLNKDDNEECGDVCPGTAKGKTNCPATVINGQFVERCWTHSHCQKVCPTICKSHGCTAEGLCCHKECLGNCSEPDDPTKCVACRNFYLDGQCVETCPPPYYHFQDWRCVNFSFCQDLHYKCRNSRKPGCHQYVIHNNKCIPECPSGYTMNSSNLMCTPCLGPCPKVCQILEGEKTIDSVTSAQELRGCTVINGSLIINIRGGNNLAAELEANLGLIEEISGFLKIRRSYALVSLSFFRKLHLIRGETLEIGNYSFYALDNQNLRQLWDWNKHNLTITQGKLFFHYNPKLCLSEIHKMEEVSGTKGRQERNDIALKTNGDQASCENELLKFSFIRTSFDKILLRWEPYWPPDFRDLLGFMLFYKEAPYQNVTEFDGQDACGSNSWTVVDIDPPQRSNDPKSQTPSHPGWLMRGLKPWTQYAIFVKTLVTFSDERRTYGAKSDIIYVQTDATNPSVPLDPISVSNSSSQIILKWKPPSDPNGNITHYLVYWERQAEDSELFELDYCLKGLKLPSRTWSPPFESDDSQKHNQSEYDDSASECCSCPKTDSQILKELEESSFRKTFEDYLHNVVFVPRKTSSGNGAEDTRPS
Chain of Insulin receptor (P15127 764-1383 limits assumed): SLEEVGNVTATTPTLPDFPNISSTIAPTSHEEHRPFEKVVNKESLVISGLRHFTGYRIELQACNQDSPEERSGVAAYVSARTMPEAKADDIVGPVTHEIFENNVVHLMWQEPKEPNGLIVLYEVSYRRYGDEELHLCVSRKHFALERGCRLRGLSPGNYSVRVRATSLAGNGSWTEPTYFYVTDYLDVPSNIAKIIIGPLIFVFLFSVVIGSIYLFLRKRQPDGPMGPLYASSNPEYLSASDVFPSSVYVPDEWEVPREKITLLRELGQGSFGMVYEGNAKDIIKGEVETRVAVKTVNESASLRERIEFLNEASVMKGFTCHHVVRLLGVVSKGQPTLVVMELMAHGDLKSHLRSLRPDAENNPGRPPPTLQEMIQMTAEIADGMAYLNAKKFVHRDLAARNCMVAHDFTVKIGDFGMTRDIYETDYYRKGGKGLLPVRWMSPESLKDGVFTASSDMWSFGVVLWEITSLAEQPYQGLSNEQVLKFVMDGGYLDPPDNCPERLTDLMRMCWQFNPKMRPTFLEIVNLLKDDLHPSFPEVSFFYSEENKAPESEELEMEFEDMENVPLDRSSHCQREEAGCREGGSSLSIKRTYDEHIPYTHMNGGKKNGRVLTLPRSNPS
Test: not given
The format is cell membranes, Wistar, Liver, Membrane.
Conditions: not given
Take `COc1ccc(C(CN(C)C)C2(O)CCCCC2)cc1` (stereo unspecified) [VENLAFAXINE]: the IC50 entry is on record as “Not Active”.

In the case of `CN(N=O)C(=O)N[C@@H](C=O)[C@@H](O)[C@H](O)[C@H](O)CO` [STREPTOZOCIN], the IC50 result is “Not Active”.

System in a further assay: not listed separately
Put plainly: DRUGMATRIX: Leukotriene, BLT (LTB4) radioligand binding (ligand: [3H]LTB4). The format is cell membranes, Membrane. Conditions: u-937; Not Active = under 50% inhibition at 10 µM.
Regarding `COc1ccc(C(CN(C)C)C2(O)CCCCC2)cc1` (stereo unspecified) [VENLAFAXINE], the IC50 result is reported as “Not Active” and the Ki entry is given as “Not Active”.

In the case of `CN(N=O)C(=O)N[C@@H](C=O)[C@@H](O)[C@H](O)[C@H](O)CO` [STREPTOZOCIN], the IC50 result is reported as “Not Active” and the Ki result was “Not Active”.

For the next assay, the target named is Melanocortin receptor 3 (Homo sapiens, UniProt P41968). Further: in other assays of this panel Not Active means under 50% inhibition at 10 µM.
Chain of Melanocortin receptor 3 (P41968 whole entry): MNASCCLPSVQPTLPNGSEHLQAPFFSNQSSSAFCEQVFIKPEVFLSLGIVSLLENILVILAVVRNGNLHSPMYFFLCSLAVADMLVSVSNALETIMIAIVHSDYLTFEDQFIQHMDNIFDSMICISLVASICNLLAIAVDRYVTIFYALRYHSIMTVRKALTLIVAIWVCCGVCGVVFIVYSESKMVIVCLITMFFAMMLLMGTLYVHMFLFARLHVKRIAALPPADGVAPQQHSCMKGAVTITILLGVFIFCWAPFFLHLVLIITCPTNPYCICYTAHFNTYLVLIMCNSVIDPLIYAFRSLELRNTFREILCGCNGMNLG
Test: not given
The class given is cell membranes, Membrane. The note with it: hek293.
Take `COc1ccc(C(CN(C)C)C2(O)CCCCC2)cc1` (stereo unspecified) [VENLAFAXINE]: the IC50 result is “Not Active”.

Consider `CN(N=O)C(=O)N[C@@H](C=O)[C@@H](O)[C@H](O)[C@H](O)CO` [STREPTOZOCIN], for which the IC50 entry is “Not Active”.

The next assay has as its target Melanocortin receptor 5 (Homo sapiens, UniProt P33032). Further: in other assays of this panel Not Active means under 50% inhibition at 10 µM.
Test: not given
The format is cell membranes, HEK293, Membrane. Conditions: hek293.
As for `COc1ccc(C(CN(C)C)C2(O)CCCCC2)cc1` (stereo unspecified) [VENLAFAXINE], the IC50 result is recorded as “Not Active”.

Turning to `CN(N=O)C(=O)N[C@@H](C=O)[C@@H](O)[C@H](O)[C@H](O)CO` [STREPTOZOCIN], the IC50 entry is “Not Active”.

The next assay concerns the target T1, Muscarinic acetylcholine receptor M4 (Homo sapiens, UniProt P08173). Further: in other assays of this panel Not Active means under 50% inhibition at 10 µM.
T1 sequence (P08173 whole entry): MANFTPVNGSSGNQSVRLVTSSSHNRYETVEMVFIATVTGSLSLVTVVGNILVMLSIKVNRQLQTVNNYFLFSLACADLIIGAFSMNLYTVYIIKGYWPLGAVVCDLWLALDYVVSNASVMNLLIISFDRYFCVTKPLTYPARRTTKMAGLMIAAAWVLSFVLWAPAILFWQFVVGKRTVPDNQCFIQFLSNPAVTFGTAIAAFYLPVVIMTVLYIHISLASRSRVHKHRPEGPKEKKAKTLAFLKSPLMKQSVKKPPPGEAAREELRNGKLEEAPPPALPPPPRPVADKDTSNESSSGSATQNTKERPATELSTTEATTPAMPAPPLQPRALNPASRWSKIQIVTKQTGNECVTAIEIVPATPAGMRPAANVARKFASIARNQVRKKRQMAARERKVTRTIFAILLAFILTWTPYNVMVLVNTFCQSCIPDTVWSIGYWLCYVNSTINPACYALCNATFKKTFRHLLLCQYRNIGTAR
Test: not given
The class given is cell membranes, CHO-K1, Membrane. The note with it: cho-k1.
As to `COc1ccc(C(CN(C)C)C2(O)CCCCC2)cc1` (stereo unspecified) [VENLAFAXINE], the IC50 result is on record as “Not Active”.

For the compound `CN(N=O)C(=O)N[C@@H](C=O)[C@@H](O)[C@H](O)[C@H](O)CO` [STREPTOZOCIN], the IC50 entry is “Not Active”.

Another assay has as its target T2, Muscarinic acetylcholine receptor M5 (Homo sapiens, UniProt P08912). Further: in other assays of this panel Not Active means under 50% inhibition at 10 µM.
T2 sequence (P08912 whole entry): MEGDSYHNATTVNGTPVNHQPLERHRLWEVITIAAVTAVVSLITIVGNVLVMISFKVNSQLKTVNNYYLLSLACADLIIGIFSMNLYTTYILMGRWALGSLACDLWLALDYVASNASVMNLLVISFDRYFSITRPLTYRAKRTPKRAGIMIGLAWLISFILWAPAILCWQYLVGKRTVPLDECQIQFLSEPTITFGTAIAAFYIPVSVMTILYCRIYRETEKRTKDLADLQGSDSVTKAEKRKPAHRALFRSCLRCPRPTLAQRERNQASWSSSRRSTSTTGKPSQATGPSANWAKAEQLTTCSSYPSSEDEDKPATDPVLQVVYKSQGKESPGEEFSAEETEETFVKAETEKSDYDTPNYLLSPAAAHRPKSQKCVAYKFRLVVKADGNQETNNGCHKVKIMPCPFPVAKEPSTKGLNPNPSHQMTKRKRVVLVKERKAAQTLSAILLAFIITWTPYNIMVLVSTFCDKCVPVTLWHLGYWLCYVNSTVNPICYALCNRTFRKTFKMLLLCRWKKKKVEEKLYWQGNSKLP
Test: not given
The class given is cell membranes, CHO-K1, Membrane. The note with it: cho-k1.
For `COc1ccc(C(CN(C)C)C2(O)CCCCC2)cc1` (stereo unspecified) [VENLAFAXINE], the IC50 entry is “Not Active”.

Regarding `CN(N=O)C(=O)N[C@@H](C=O)[C@@H](O)[C@H](O)[C@H](O)CO` [STREPTOZOCIN], the IC50 result is “Not Active”.

The next assay deals with T3, Caspase-1 (Homo sapiens, UniProt P29466).
T3 sequence (P29466 whole entry): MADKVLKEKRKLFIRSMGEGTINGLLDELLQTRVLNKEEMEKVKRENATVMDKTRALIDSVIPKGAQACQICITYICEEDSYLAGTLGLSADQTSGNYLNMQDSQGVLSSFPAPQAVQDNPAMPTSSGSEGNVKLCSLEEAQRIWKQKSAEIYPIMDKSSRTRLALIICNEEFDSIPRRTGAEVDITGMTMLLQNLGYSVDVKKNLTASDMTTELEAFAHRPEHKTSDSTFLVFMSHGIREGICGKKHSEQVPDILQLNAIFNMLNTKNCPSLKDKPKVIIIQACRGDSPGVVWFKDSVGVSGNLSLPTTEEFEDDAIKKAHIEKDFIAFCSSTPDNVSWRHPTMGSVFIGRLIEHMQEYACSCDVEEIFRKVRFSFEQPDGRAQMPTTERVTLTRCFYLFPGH
Test: not given
More on the design: species or system Escherichia coli.
Conditions: not given
In the case of `COc1ccc(C(CN(C)C)C2(O)CCCCC2)cc1` (stereo unspecified) [VENLAFAXINE], the IC50 entry is given as “Not Active”.

`CN(N=O)C(=O)N[C@@H](C=O)[C@@H](O)[C@H](O)[C@H](O)CO` [STREPTOZOCIN]: the IC50 entry is reported as “Not Active”.

The next assay addresses T4, Neutrophil elastase (Homo sapiens, UniProt P08246).
T4 sequence (P08246 whole entry): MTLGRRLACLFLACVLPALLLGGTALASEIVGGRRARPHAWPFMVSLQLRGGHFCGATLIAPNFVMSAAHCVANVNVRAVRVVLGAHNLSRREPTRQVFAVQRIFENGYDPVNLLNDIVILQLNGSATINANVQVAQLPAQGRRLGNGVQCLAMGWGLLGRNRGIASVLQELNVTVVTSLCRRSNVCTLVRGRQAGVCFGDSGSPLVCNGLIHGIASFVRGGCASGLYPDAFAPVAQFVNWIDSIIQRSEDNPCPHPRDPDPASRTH
Test: not given
The class given is tissue-based.
Conditions: not given
Regarding `COc1ccc(C(CN(C)C)C2(O)CCCCC2)cc1` (stereo unspecified) [VENLAFAXINE], the IC50 result is “Not Active”.

`CN(N=O)C(=O)N[C@@H](C=O)[C@@H](O)[C@H](O)[C@H](O)CO` [STREPTOZOCIN]: the IC50 entry is reported as “Not Active”.

The next assay has as its target Tyrosine-protein kinase Fyn (Homo sapiens, UniProt P06241). Nature of the assay: biochemical. The class given is cell-based, Insect cells. The note with it: insect cells.
As for `COc1ccc(C(CN(C)C)C2(O)CCCCC2)cc1` (stereo unspecified) [VENLAFAXINE], the IC50 result was “Not Active”.

With `CN(N=O)C(=O)N[C@@H](C=O)[C@@H](O)[C@H](O)[C@H](O)CO` [STREPTOZOCIN], the IC50 result was “Not Active”.

Another assay has as its target Receptor tyrosine-protein kinase erbB-2 (Homo sapiens, UniProt P04626). Nature of the assay: biochemical. The format is cell-based, Insect cells. Conditions: insect cells.
Turning to `COc1ccc(C(CN(C)C)C2(O)CCCCC2)cc1` (stereo unspecified) [VENLAFAXINE], the IC50 result is listed as “Not Active”.

As to `CN(N=O)C(=O)N[C@@H](C=O)[C@@H](O)[C@H](O)[C@H](O)CO` [STREPTOZOCIN], the IC50 result is “Not Active”.

Another assay concerns the target 5-hydroxytryptamine receptor 1B (Rattus norvegicus, UniProt P28564). Further: in other assays of this panel Not Active means under 50% inhibition at 10 µM.
Test: not given
The format is cell membranes, Wistar, Cerebral cortex, Membrane.
Conditions: not given
On to `COc1ccc(C(CN(C)C)C2(O)CCCCC2)cc1` (stereo unspecified) [VENLAFAXINE], for which the IC50 entry is “Not Active”.

In the case of `CN(N=O)C(=O)N[C@@H](C=O)[C@@H](O)[C@H](O)[C@H](O)CO` [STREPTOZOCIN], the IC50 result is “Not Active”.
